Assay results published in publication PMC10119128, “Parkinson’s disease-associated ATP13A2/PARK9 functions as a lysosomal H^+,K^+-ATPase” (Nature Communications, 2023).

Experiments:
ATP13A2 [1] = target: T1, ATP13A2 (Homo sapiens, UniProt Q9NQ11); assay: ΔTG-sensitive ATPase activity in membrane fractions, mock control; […]+ efflux; siRNA knockdown in SH-SY5Y; type: biochemical
T1 construct: full-length, N-terminal Xpress-tag, membrane fractions of transfected HEK293 cells
T1 sequence (Q9NQ11 1-1180): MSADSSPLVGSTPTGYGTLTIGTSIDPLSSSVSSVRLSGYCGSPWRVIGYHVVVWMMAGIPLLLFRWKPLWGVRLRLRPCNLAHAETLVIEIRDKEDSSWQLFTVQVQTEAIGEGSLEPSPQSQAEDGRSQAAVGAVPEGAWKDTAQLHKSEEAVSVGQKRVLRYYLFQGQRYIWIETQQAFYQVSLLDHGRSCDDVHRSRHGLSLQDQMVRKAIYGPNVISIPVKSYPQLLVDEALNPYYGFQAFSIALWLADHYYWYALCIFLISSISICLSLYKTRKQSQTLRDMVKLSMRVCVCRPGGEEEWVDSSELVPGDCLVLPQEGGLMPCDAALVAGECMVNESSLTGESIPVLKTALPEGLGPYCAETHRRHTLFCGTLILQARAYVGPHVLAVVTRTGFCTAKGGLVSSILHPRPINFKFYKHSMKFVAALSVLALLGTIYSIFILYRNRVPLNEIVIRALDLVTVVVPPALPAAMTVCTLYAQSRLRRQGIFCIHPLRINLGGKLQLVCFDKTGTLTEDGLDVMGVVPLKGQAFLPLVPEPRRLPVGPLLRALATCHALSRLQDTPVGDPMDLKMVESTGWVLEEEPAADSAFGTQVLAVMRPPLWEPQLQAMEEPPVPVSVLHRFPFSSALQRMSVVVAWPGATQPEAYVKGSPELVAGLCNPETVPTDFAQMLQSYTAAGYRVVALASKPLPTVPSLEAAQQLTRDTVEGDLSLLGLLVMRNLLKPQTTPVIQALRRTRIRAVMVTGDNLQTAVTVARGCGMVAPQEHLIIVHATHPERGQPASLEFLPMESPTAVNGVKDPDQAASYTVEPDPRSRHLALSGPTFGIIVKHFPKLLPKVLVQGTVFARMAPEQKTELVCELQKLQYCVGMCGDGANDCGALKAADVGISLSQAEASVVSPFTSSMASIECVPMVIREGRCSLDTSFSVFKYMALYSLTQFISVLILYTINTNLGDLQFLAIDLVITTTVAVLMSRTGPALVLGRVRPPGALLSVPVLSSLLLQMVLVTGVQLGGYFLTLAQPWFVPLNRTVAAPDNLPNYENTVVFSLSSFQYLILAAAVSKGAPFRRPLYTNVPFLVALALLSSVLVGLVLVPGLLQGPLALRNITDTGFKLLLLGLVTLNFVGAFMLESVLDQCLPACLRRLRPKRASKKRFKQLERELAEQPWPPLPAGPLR

ATP13A2 [2] = target: T1, ATP13A2; assay: ΔTG-sensitive ATPase activity in membrane fractions, mock control; […]+ efflux; type: biochemical

Structure (SMILES)	IC50 (ATP13A2 [1]) [nM]	IC50 (ATP13A2 [2]) [nM]
Cc1nc2c(OCc3ccccc3)cccn2c1CC#N [SCH28080]	1200	–
CO/C1=C\C(C)=C\[C@@H](C)[C@@H](O)[C@@H](C)C/C(C)=C/C=C/[C@H](OC)[C@@H]([C@@H](C)[C@@H](O)[C@H](C)[C@@]2(O)C[C@@H](O)[C@H](C)[C@@H](C(C)C)O2)OC1=O [bafilomycin A1]	–	0.5
CNCc1cc(-c2ccccc2F)n(S(=O)(=O)c2cccnc2)c1 [vonoprazan]	800	–
